# ChEMBL document CHEMBL1150909, “Magnone A and B, novel anti-PAF tetrahydrofuran lignans from the flower buds of Magnolia fargesii” (J Nat Prod, 1998)
# Tests used:
# [1] = Displacement of [3H]PAF from rabbit PAF receptor by liquid scintillation counting; parameters: species or system Oryctolagus cuniculus
# [2] = species on record: Oryctolagus cuniculus; assay: Displacement of [3H]PAF from rabbit PAF receptor at 25 uM by liquid scintillation counting
# [3] = species on record: Oryctolagus cuniculus; assay: Displacement of [3H]PAF from rabbit PAF receptor at 12.5 uM by liquid scintillation counting
# [4] = species on record: Oryctolagus cuniculus; assay: Displacement of [3H]PAF from rabbit PAF receptor at 50 uM by liquid scintillation counting
# [5] = species on record: Oryctolagus cuniculus; assay: Displacement of [3H]PAF from rabbit PAF receptor at 100 uM by liquid scintillation counting
Structure (SMILES),IC50 [1],Activity [2],Activity [3],Activity [4],Activity [5]
C[C@@H]1C(=O)O[C@H]2[C@H](O)[C@@]34[C@H]5C[C@@H](C(C)(C)C)[C@]36[C@@H](OC(=O)[C@@H]6O)O[C@@]4(C(=O)O5)[C@@]12O [GINKOLIDE B],19 µM,,,,
COc1ccc(C(=O)[C@H]2CO[C@H](c3ccc(OC)c(OC)c3)[C@H]2CO)cc1OC [MAGNONE A],38 µM,41.6%,19.4%,56.7%,75.2%
COc1ccc(C(=O)[C@H]2CO[C@H](c3cc(OC)c(OC)c(OC)c3)[C@H]2CO)cc1OC [MAGNONE B],27 µM,42.9%,37.1%,64.3%,81.7%
